Experimental data published in ChEMBL document CHEMBL2074571, “The mouse Bcrp1/Mxr/Abcp gene: amplification and overexpression in cell lines selected for resistance to topotecan, mitoxantrone, or doxorubicin” (Cancer Res, 1999).

Columns and labels:
Type in all cases: functional, cell-based
[1] = biological target: T1, Broad substrate specificity ATP-binding cassette transporter ABCG2 (Mus musculus, UniProt Q7TMS5); experiment: TP_TRANSPORTER: increase in mitoxantrone intracellular accumulation (Mitoxantrone: 20 uM, GF120918: 2 uM) in MEF3.8, M32 and T6400 cells; conditions: mef3.8;m32;t6400, 2 µM
T1 sequence (Q7TMS5 whole entry): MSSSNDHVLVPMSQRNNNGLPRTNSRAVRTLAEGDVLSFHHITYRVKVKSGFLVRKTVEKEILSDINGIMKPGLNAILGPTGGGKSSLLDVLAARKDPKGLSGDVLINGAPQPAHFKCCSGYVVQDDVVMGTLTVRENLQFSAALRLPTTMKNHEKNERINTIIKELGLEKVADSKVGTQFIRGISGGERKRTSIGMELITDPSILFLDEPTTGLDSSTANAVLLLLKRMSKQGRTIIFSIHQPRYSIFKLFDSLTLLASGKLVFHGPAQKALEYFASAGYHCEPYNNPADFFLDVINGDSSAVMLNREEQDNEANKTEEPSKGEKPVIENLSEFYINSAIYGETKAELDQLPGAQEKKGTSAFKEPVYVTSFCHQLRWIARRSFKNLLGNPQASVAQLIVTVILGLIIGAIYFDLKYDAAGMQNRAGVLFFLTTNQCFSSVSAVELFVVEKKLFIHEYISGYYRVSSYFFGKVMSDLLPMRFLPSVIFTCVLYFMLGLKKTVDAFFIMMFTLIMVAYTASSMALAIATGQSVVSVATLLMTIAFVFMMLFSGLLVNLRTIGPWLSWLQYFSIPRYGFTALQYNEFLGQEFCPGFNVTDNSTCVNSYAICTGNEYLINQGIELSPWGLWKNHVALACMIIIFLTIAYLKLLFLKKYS

[2] = biological target: T1, Broad substrate specificity ATP-binding cassette transporter ABCG2; experiment: TP_TRANSPORTER: increase in mitoxantrone intracellular accumulation (Mitoxantrone: 20 uM, GF120918: 2 uM) in KOT52 and D320 cells; conditions: kot52;d320, 2 µM
[3] = biological target: T1, Broad substrate specificity ATP-binding cassette transporter ABCG2; experiment: TP_TRANSPORTER: cell accumulation in MEF3.8, M32 and T6400 cells; conditions: mef3.8;m32;t6400
[4] = biological target: T1, Broad substrate specificity ATP-binding cassette transporter ABCG2; experiment: TP_TRANSPORTER: cell accumulation in KOT52 and D320 cells

With `COc1cc2c(cc1OC)CN(CCc1ccc(NC(=O)c3cccc4c(=O)c5cccc(OC)c5[nH]c34)cc1)CC2.Cl` [ELACRIDAR HYDROCHLORIDE] the Activity [1] was “inhibitor [+]” and the Activity [2] was “inhibitor [+]”.

With `O=C1c2c(O)ccc(O)c2C(=O)c2c(NCCNCCO)ccc(NCCNCCO)c21` [MITOXANTRONE] the Activity [3] was “substrate [+]” and the Activity [4] was “substrate [+]”.
